Results taken from PubChem BioAssay (NCI).
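Values below derive from 48-hour exposures of cells grown in 96-well plates, with endpoints linearly interpolated between the two concentrations bracketing the appropriate inhibition level. GI50 = concentration required for 50% inhibition of growth. TGI: concentration producing complete growth inhibition.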

Key:
Assay in all cases: NCI-60 cell line screen, 48 h
786-0 renal = tested on: 786-0 renal
CCRF-CEM leukemia = tested on: CCRF-CEM leukemia
MOLT-4 leukemia = tested on: MOLT-4 leukemia
NCI-H460 lung = tested on: NCI-H460 lung
PC-3 prostate = tested on: PC-3 prostate
RXF 393 renal = tested on: RXF 393 renal
SF-295 CNS = tested on: SF-295 CNS
SK-MEL-2 melanoma = tested on: SK-MEL-2 melanoma
SN12C renal = tested on: SN12C renal
SW-620 colon = tested on: SW-620 colon

Row | SMILES | GI50 (786-0 renal) [µM] | TGI (786-0 renal) [µM] | GI50 (CCRF-CEM leukemia) [µM] | TGI (CCRF-CEM leukemia) [µM] | GI50 (MOLT-4 leukemia) [µM] | TGI (MOLT-4 leukemia) [µM] | TGI (NCI-H460 lung) [µM] | GI50 (PC-3 prostate) [µM] | TGI (PC-3 prostate) [µM] | GI50 (RXF 393 renal) [µM] | TGI (RXF 393 renal) [µM] | GI50 (SF-295 CNS) [µM] | TGI (SF-295 CNS) [µM] | GI50 (SK-MEL-2 melanoma) [µM] | TGI (SK-MEL-2 melanoma) [µM] | GI50 (SN12C renal) [µM] | TGI (SN12C renal) [µM] | GI50 (SW-620 colon) [µM] | TGI (SW-620 colon) [µM] | GI50 (NCI-H460 lung) [µM]
1 | COc1cc2c(/C=C3\C(=O)N(C)c4ccccc43)c[nH]c2cc1C | 4.43 | > 59.6 | 0.957 | 18.8 | 5.83 | > 64 | > 37.1 | 2.56 | > 100 | 2.56 | 69.9 | 0.374 | 15.6 | 10.2 | > 84.1 | 2 | > 73.5 | 1.68 | > 100 | 
2 | Cc1[nH]c2ccccc2c1CO | 24.5 | 64.8 | 32.8 | > 100 | 25.1 | 91.6 | 31.6 | 17 | 43.7 | 20.2 | 47.6 | 22.5 | 44.7 | 16.7 | 36.6 | 15.8 | 32.1 | 15.1 | 28.4 | 16.9
3 | CN1CCN(C)C1c1ccc(C2N(C)CCN2C)cc1 | > 100 | > 100 | 29.8 | > 100 | 26.1 | 62 | > 100 | > 100 | > 100 | > 100 | > 100 | > 100 | > 100 | > 100 | > 100 | 31.4 | > 100 | 25 | > 100 | > 100
4 | COc1cc2c3c(n(CCCN=[N+]=[N-])c(=O)c2cc1OC)-c1ccc([N+](=O)[O-])cc1C3=O | 50.3 | > 100 | 38.7 | > 100 | 63.3 | > 100 | > 100 | > 100 | > 100 | > 100 | > 100 | > 100 | > 100 | 36.5 | > 100 | > 100 | > 100 | 55.3 | > 100 | 49.5
5 | O=C(Nc1ccc(Cl)c(C(F)(F)F)c1)Nc1ccc(-c2cccnc2)cc1N1CCC(CO)CC1 | 1.84 | 4.52 | 2.9 | > 100 | 2.57 | > 100 | 6.24 | 1.87 | 5.37 | 1.74 | 3.34 | 2.11 | 5.15 | 1.86 | 4.34 | 3.46 | 19 | 2.76 | 27.2 | 2.32
6 | Nc1nc(Sc2ccc([N+](=O)[O-])c3nonc23)c2ncn(C3OC(CO)C(O)C3O)c2n1 (stereo not drawn) | 0.766 | 14.2 | 0.198 | 6.65 | 0.325 | > 37.5 | 15.5 | 3.24 | 26.6 | 10.4 | > 62.5 | 1.95 | > 100 | 0.393 | 8.81 | 1.48 | 21.8 | 1.12 | > 35 | 0.311
7 | Cc1ccc(-c2cc(C(=O)Nc3ccc(S(=O)(=O)N4CCCCC4)cc3)[nH]n2)c(O)c1 | > 100 | > 100 | 59.6 | > 100 | 55.1 | > 100 | > 100 | > 100 | > 100 | > 100 | > 100 | > 100 | > 100 | > 100 | > 100 | > 100 | > 100 | > 100 | > 100 | > 100
8 | COc1cc(-n2cc(-c3ccc(Cl)cc3)n(-c3ccccc3)c2=O)cc(OC)c1OC | 30.7 | > 100 | 2.67 |  | 11.3 | > 51.6 | > 100 | > 37.7 | > 100 | 24.5 | > 100 | 19.3 | > 100 | 17.4 | 40 | 23.3 | > 72.5 | 27.1 | > 100 | 14.9
9 | COc1cc(OC)c(C(=O)/C=C/c2ccc(C#N)cc2)c(OC)c1 | 1.86 | 6.88 | 1.37 | 15 | 1.44 | 13 | 3.94 | 1.72 | 6.87 | 1.39 | 4.23 | 1.72 | 8.81 | 1.46 | 4.43 | 1.82 | 7.91 | 1.84 | 7.22 | 1.35
